# Test system: AMPK
# Assay: AMPK phosphorylation (pAMPK) in myocytes (Western blotting)
# Type: cell-based
# Excerpt: During fasting or exercising, myocytes are depleted of energy, which causes a decrease in ATP production and an increase in AMP production. It is well known that, in this case, cells activate AMPK signaling to increase cellular homeostasis against metabolic stress. To evaluate a metabolic function regulating effect of Lactobacillus bacteria-derived vesicles, myocytes were each treated with Lactobacillus paracasei-derived vesicles (MDH-001-CM) and Lactobacillus rhamnosus-derived vesicles (MDH-003-CM) at concentrations of 0, 0.1, 1, and 10 μg/ml for 1 hour. Afterwards, the degree of AMPK phosphorylation (pAMPK), an indicator of AMPK signaling, was measured by Western blotting. As control drugs, 1 μM insulin and 50 mM metformin were used.
Molecule,phosphorylation of AMPK (pAMPK) (1 μM insulin),phosphorylation of AMPK (pAMPK) (50 mM metformin)
insulin,inhibited,
CN(C)C(=N)N=C(N)N [metformin],,increased
